Reference: publication PMC5444859 (PLoS Pathogens, 2017)

Biological target: CASV L-Cterm (CAS virus, UniProt J7HBG8)
Assay type: binding

SMILES: C[n+]1cn([C@@H]2O[C@H](COP(=O)(O)OP(=O)(O)OP(=O)(O)O)[C@@H](O)[C@H]2O)c2nc(N)[nH]c(=O)c21 [m^7GTP]
- X-ray crystallography, crystal soaking: the cap-analogue was bound to F1839 at the periphery of the β-sheet
